Measured values: patent US20230212180A1, “SUBSTITUTED PYRAZINE COMPOUND, PHARMACEUTICAL COMPOSITION COMPRISING SAME, AND USE THEREOF” (Sichuan Kelun-Biotech Biopharmaceutical Co., Ltd., priority 2020, published 2023)
Like-named read-outs stand apart in the source and are kept apart here.

Key:
[1] = molecular target: T1, hERG (Homo sapiens, UniProt Q12809); test: Biochemical assay for hERG inhibition (Predictor hERG Fluorescence Polarization Assay Kit); format: binding
T1 construct: purchased ThermoFisher
Protocol: Test Example 3: Biochemical Assay for hERG Inhibition
kit: Predictor™ hERG Fluorescence Polarization Assay Kit (ThermoFisher) containing:
Compound E4031 as a positive control;
tracer concentration: 1 nM;
incubation duration: 2 hours;
parameters for microplate reader: BMG PHERAstar FS fluorescence microplate reader.
Test group: The test compounds at different concentrations were added into a microplate containing hERG cell membrane, and the tracer with a high affinity for hERG was then added into each well. The microplate was incubated at 25° C. for 2 hours before detection of the change in fluorescence polarization value (mP) (excitation wavelength: 540 nm; emission wavelength: 590 nm) using a multi-mode microplate reader.
Positive control group: The experimental method for the positive control group was the same as that for the test group, except that the test compound was replaced with 30 μM Compound E4031.
Blank control group: The experimental method for the blank control group was the same as that for the test group, except that the test compound was replaced with the hERG buffer and that the hERG cell membrane was not added.
Based on the data ratios, the percentage inhibition (%) of the compounds of the present disclosure against hERG at different concentrations was calculated and the range of the half maximal inhibitory concentration (IC50) of the compounds was determined. Percentage inhibition (%)=(1−(mP of the test compound−mP of the positive control group)/(mP of the blank control group−mP of the positive control group))×100%.

[2] = tested on: NCI-H358 cell (human non-small cell lung cancer cell); test: Inhibition of the proliferation activity of NCI-H358 cell (CellTiter-Glo); format: cell-based; settings: 120 h, 5 days
Protocol: Test Example 4: Experiment on the Inhibition of the Proliferation Activity of NCI-H358 Cell (Human Non-Small Cell Lung Cancer Cell)
cell: NCI-H358 (Nanjing CoBioer);
kit: CellTiter-Glo® Luminescent Cell Viability Assay Kit (Promega).
inoculation amount of cell: 1500 cells/well;
incubation conditions for compounds: 37° C., 5% CO2;
incubation duration: 5 days;
detecting temperature: room temperature;
chemiluminescence detection using the BMG PHERAstar FS reader.
Cells were cultured in a medium containing 10% fetal bovine serum under the culture conditions of 37° C. and 5% CO2. An appropriate amount of cells were plated into a 96-well plate and cultured overnight in an incubator to allow the cells to adhere to the wall. The following day, the medium was removed and a complete medium containing a pre-diluted compound was added and incubated at 37° C. for 5 days. On the fifth day, the detection reagent CellTiter-Glo® was added into each well. Chemiluminescence was adopted to detect the relative luminescence units (RLUs) of the wells.
The result of a well containing cell-free medium, treated with CellTiter-Glo®, was obtained as the blank value. Cell viability (%)=(sample RLU−blank RLU)/(vehicle RLU−blank RLU)×100%, and maximum inhibition rate (%)=100%−cell viabilitymax. conc. (%). The half maximal inhibitory concentration (IC50) of the compound was calculated by fitting the curve according to the four-parameter logistic model.

[3] = molecular target: T2, CYP2D6 (Homo sapiens, UniProt P10635); test: Biochemical assay for CYP enzyme inhibition, P450-Glo CYP2D6 Screening System; format: in vitro ADME
T2 construct: purchased Promega
Protocol: (§1) Test Example 5: Biochemical Assay for CYP Enzyme (Cytochrome P450) Inhibition
P450-Glo™ CYP2D6 Screening System, (Promega);
(§2) BMG PHERAstar FS Luminescent.
(§3) The experiments were carried out separately according to the instructions of the kits. The steps were as follows:
3.2. Inhibition Against CYP2D6:
(§4) Test group: The test compounds at different concentrations were added into a microplate, and Luciferin-ME EGE (3 μM), K3PO4 (100 mM), and CYP2D6 (5 nM) were added into each well, and pre-incubated at room temperature for 10 min. Thereafter, an NADPH regeneration system was added. The mixture was reacted at 37° C. for 30 min. Finally, an equal volume of detection buffer was added and incubated at room temperature for 20 min, followed by chemiluminescence detection.
(§5) Negative control group: The experimental method for the negative control group was the same as that for the test group, except that the test compound was not added.
Blank control group: The experimental method for the blank control group was the same as that for the test group, except that the test compound was not added and that CYP2D6 was replaced with CYP2D6 Membrance (5 nM).
(§6) Percentage inhibition=(1−(the chemiluminescent signal value of the test compound group at a certain test concentration−the chemiluminescent signal value of the blank control group)/(the chemiluminescent signal value of the negative control group−the chemiluminescent signal value of the blank control group))×100%.
(§7) When the percentage inhibition was between 30% and 80%, a single value or a value range of the half maximal inhibitory concentration (IC50) of the compound against the CYP enzyme was estimated based on the following equation: IC50=X×(1−percentage inhibition)/percentage inhibition, wherein X was the test concentration of the compound.

[4] = molecular target: T3, CYP1A2 (Homo sapiens, UniProt P05177); test: Biochemical assay for CYP enzyme inhibition, P450-Glo CYP1A2 Screening System; format: in vitro ADME
T3 construct: purchased Promega
T3 sequence (P05177 1-516): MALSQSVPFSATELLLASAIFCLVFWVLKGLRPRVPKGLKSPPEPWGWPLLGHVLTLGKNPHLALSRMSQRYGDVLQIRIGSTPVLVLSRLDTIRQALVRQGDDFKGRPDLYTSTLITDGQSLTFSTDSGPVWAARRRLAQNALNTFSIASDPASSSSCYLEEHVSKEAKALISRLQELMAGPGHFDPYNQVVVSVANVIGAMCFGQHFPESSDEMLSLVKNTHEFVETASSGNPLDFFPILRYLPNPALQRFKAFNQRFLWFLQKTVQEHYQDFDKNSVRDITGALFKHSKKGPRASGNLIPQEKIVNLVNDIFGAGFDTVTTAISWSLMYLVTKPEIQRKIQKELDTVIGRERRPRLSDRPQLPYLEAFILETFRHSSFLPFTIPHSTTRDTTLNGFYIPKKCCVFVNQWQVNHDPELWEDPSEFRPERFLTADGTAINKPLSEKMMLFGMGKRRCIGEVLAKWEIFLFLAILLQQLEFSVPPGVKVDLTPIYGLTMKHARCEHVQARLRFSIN
Protocol: as §1
P450-Glo™ CYP1A2 Screening System, (Promega);
as §2, §3
3.1. Inhibition Against CYP1A2:
as §4, with “(100” for “EGE (3”, “CYP1A2 (0.01 μmol/μL)” for “CYP2D6 (5 nM)”, “room temperature” for “37° C.”
as §5
Blank control group: The experimental method for the blank control group was the same as that for the test group, except that the test compound was not added and that CYP1A2 was replaced with CYP1A2 Membrance (0.01 μmol/μL).
as §6, §7

[5] = estimated from percentage inhibition, read-out: IC50 (μM) CYP2D6

T2 sequence (P10635 whole entry): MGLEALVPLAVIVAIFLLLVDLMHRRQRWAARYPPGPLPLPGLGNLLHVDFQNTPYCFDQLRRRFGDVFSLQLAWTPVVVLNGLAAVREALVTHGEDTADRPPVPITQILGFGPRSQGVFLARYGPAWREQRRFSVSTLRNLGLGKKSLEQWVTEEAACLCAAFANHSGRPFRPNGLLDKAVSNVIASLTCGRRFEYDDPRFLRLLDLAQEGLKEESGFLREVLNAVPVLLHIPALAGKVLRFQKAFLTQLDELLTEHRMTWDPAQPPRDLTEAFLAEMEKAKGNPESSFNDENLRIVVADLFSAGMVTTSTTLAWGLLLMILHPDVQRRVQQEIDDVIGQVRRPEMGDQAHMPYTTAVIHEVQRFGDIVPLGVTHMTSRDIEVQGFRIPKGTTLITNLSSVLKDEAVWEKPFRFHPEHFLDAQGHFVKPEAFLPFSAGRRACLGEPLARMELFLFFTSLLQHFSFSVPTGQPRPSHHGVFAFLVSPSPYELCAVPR
T1 sequence (Q12809 whole entry): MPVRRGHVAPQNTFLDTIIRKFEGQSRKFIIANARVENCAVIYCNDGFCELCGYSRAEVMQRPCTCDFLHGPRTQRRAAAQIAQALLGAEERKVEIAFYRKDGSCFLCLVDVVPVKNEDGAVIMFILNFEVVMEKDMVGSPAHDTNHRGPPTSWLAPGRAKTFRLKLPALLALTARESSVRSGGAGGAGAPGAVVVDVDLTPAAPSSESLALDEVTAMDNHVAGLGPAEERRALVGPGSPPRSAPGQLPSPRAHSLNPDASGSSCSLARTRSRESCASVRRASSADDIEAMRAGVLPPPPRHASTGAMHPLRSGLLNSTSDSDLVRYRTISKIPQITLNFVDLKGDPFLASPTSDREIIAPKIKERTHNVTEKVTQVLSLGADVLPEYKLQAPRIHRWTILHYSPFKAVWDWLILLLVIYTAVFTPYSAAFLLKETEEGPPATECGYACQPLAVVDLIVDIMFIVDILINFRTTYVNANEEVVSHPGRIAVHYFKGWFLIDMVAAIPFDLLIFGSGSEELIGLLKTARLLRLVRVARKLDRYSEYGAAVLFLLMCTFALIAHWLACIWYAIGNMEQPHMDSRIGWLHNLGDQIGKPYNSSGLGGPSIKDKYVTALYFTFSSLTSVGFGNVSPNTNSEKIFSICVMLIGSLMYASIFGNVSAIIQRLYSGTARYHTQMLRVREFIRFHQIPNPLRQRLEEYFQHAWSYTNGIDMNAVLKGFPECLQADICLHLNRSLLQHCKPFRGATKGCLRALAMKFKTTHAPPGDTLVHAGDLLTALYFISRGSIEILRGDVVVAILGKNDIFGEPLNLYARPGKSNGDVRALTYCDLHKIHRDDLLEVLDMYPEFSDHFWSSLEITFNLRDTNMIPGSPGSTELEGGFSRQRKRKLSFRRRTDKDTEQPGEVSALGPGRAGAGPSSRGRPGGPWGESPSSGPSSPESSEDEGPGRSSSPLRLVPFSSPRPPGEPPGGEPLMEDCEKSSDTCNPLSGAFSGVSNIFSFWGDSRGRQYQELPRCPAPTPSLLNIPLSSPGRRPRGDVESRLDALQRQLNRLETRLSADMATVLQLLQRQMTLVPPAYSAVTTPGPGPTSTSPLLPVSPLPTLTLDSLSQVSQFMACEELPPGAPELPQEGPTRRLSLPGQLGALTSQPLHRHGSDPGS

| Compound | IC50 [1] [µM] | IC50 [2] [µM] | IC50 [3] [µM] | IC50 [4] [µM] | IC50 [3, 5] [µM] | IC50 ([1]; competition with affinity tracer 1 nM, 2 hours, read-out: IC50 (μM), hERG inhibition assay) [µM] | IC50 ([4]; estimated from percentage inhibition, read-out: IC50 (μM) CYP1A2) [µM] |
| --- | --- | --- | --- | --- | --- | --- | --- |
| C[C@@H]1OCC2(CCN(c3ncc(Sc4ccnc(N5CC(CS(C)(=O)=O)C5)c4Cl)nc3CO)CC2)[C@@H]1N [Example 26, (3-((3S,4S)-4-amino-3-methyl-2-oxa-8-azaspiro[4.5]decan-8-yl)-6-(3-chloro-2-(3-(methylsulfonylmethyl)azetidin-1-yl)pyridin-4-ylthio)pyrazin-2-yl)methanol] | > 10 | 0.032 | > 10 | > 10 |  |  |  |
| C[C@@H]1OCC2(CCN(c3ncc(Sc4ccnc(N5CC(C)(CO)C5)c4Cl)nc3CO)CC2)[C@@H]1N [Example 27, (3-((3S,4S)-4-amino-3-methyl-2-oxa-8-azaspiro[4.5]decan-8-yl)-6-(3-chloro-2-(3-(hydroxymethyl)-3-methylazetidin-1-yl)pyridin-4-ylthio)pyrazin-2-yl)methanol] | > 10 | 0.03 | > 10 | > 10 |  |  |  |
| C[C@@H]1OCC2(CCN(c3cnc(Sc4ccnc(N5CC(C(C)(C)O)C5)c4Cl)cn3)CC2)[C@@H]1N [Example 28, 2-(1-(4-(5-((3S,4S)-4-amino-3-methyl-2-oxa-8-azaspiro[4.5]decan-8-yl)pyrazin-2-ylthio)-3-chloropyridin-2-yl)azetidin-3-yl)propan-2-ol] | > 10 | 0.13 | > 10 | > 10 |  |  |  |
| C[C@@H]1OCC2(CCN(c3ncc(Sc4ccnc(N5CC(C)(CS(C)(=O)=O)C5)c4Cl)nc3CO)CC2)[C@@H]1N [Example 29, (3-((3S,4S)-4-amino-3-methyl-2-oxa-8-azaspiro[4.5]decan-8-yl)-6-(3-chloro-2-(3-methyl-3-(methylsulfonylmethyl)azetidin-1-yl)pyridin-4-ylthio)pyrazin-2-yl)methanol] | > 10 | 0.04 | > 10 | > 10 |  |  |  |
| C[C@@H]1OCC2(CCN(c3ncc(Sc4ccnc(N5CC(C(C)(C)O)C5)c4F)nc3CO)CC2)[C@@H]1N [Example 40, 2-(1-(4-(5-((3S,4S)-4-amino-3-methyl-2-oxa-8-azaspiro[4.5]decan-8-yl)-6-(hydroxymethyl)pyrazin-2-ylthio)-3-fluoropyridin-2-yl)azetidin-3-yl)propan-2-ol] | > 10 | 0.03 | > 10 | > 10 |  |  |  |
| C[C@@H]1OCC2(CCN(c3ncc(Sc4ccnc(N5CC(CO)(CF)C5)c4Cl)nc3CO)CC2)[C@@H]1N [Example 42, (3-((3S,4S)-4-amino-3-methyl-2-oxa-8-azaspiro[4.5]decan-8-yl)-6-(3-chloro-2-(3-(fluoromethyl)-3-(hydroxymethyl)azetidin-1-yl)pyridin-4-ylthio)pyrazin-2-yl)methanol] | > 10 | 0.044 |  | > 10 | > 10 |  |  |
| CC(C)(O)C1CN(c2nccc(Sc3ncc(N4CCC5(CC4)Cc4ncccc4[C@H]5N)nc3N)c2Cl)C1 [Example 46, (S)-2-(1-(4-(3-amino-5-(5-amino-5,7-dihydrospiro[cyclopenta[b]pyridine-6,4′-piperidin]-1′-yl)pyrazin-2-ylthio)-3-chloropyridin-2-yl)azetidin-3-yl)propan-2-ol] |  | 0.028 |  |  | > 10 | > 10 | > 10 |
| C[C@@H]1OCC2(CCN(c3ncc(Sc4ccnc(N5CC(C#N)(CO)C5)c4Cl)nc3CO)CC2)[C@@H]1N [Example 47, 1-(4-(5-((3S,4S)-4-amino-3-methyl-2-oxa-8-azaspiro[4.5]decan-8-yl)-6-(hydroxymethyl)pyrazin-2-ylthio)-3-chloropyridin-2-yl)-3-(hydroxymethyl)azetidine-3-carbonitrile] | > 10 | 0.023 | > 10 | > 10 |  |  |  |
